Results published in PMC9490041, “Determinants of affinity, specificity, and phase separation in a supramodule from Post-synaptic density protein 95” (iScience, 2022).
Where two headings read alike, the source gives them in different places.

How the values were obtained:
Assay in all cases: FP displacement (competition) of FITC-15 AA CRIPT by library peptide, IC50 and Ki
PSG G322A G335A (PSD-95) = conditions: for IC50: read-out: IC50 (µM), PSG G322A G335A
PSG G335A (PSD-95) = conditions: for IC50: read-out: IC50 (µM), PSG G335A; for Ki: read-out: Ki (µM), PSG G335A
PSG G322A (PSD-95) = conditions: for IC50: read-out: IC50 (µM), PSG G322A; for Ki: read-out: Ki (µM), PSG G322A
[1] = FP displacement of FITC-15 AA CRIPT probe by acetylated PSD library peptide (P-13 to P0 plus extra N-terminal Y)
[2] = FP displacement of FITC-15 AA CRIPT probe by acetylated PSD library peptide
[3] = FP displacement of FITC-15 AA CRIPT probe by PSD library peptide, protein PSG G322A
[4] = read-out: Ki (µM), PSG G322A G335A, FP displacement of FITC-15 AA CRIPT probe by acetylated PSD library peptide
[5] = FP displacement of FITC-15 AA CRIPT probe by PSD library peptide, protein PSG G322A G335A
[6] = read-out: Ki (µM), PSG G322A G335A, FP displacement of FITC-15 AA CRIPT probe by PSD library peptide, protein PSG G322A G335A
[7] = FP displacement of FITC-15 AA CRIPT probe by PSD library peptide, protein PSG G335A

Row | SMILES | Ki (PSG G322A G335A (PSD-95); FP displacement of 5 nM FITC-15 AA CRIPT by non-labeled acetylated peptide, room temperature, Ki from IC50, PSG G322A G335A) | IC50 (PSG G322A G335A (PSD-95); [1]) | IC50 (PSG G335A (PSD-95); [2]) | Ki (PSG G335A (PSD-95); [2]) | IC50 (PSG G322A (PSD-95); [2]) | Ki (PSG G322A (PSD-95); [2]) | IC50 (PSG G322A (PSD-95); [3]) | Ki (PSG G322A (PSD-95); [3]) | Ki (PSG G322A G335A (PSD-95); [4]) | IC50 (PSG G322A G335A (PSD-95); [5]) | Ki (PSG G322A G335A (PSD-95); [6]) | IC50 (PSG G335A (PSD-95); [7]) | Ki (PSG G335A (PSD-95); [7])
1 | CC[C@H](C)[C@H](NC(=O)[C@H](CC(=O)O)NC(=O)[C@H](CCC(N)=O)NC(=O)CNC(=O)[C@@H](NC(=O)[C@H](CC(C)C)NC(=O)[C@@H]1CCCN1C(=O)[C@H](Cc1ccc(O)cc1)NC(C)=O)C(C)C)C(=O)N[C@H](C(=O)N[C@@H](CC(=O)O)C(=O)N[C@@H](CC(C)C)C(=O)N[C@@H](CCC(N)=O)C(=O)N[C@H](C(=O)N[C@@H](CCC(=O)O)C(=O)N[C@H](C(=O)O)C(C)C)[C@@H](C)O)[C@@H](C)CC [ADGRB1] | 39 µM | 112 µM | 245 µM | 87 µM | 258 µM | 112 µM |  |  |  |  |  |  | 
2 | CC[C@H](C)[C@H](NC(=O)[C@H](CCCNC(=N)N)NC(=O)[C@H](CCCNC(=N)N)NC(=O)[C@H](CCC(N)=O)NC(=O)[C@H](CC(N)=O)NC(=O)[C@H](CC(C)C)NC(=O)CNC(=O)[C@H](CO)NC(=O)[C@H](Cc1ccc(O)cc1)NC(=O)[C@H](CC(C)C)NC(=O)[C@H](CC(=O)O)NC(=O)[C@H](CCCNC(=N)N)NC(=O)[C@H](CCC(N)=O)NC(=O)CNC(=O)[C@H](Cc1ccc(O)cc1)NC(C)=O)C(=O)O [CD3E] |  |  |  |  |  |  | 757 µM | 328 µM |  |  |  |  | 
3 | CSCC[C@H](NC(=O)[C@H](CC(N)=O)NC(=O)[C@H](CCCCN)NC(=O)[C@H](CC(C)C)NC(=O)[C@@H](NC(=O)[C@H](CC(=O)O)NC(=O)[C@H](Cc1ccc(O)cc1)NC(C)=O)C(C)C)C(=O)N[C@H](C(=O)N[C@@H](CC(=O)O)C(=O)N[C@@H](CCCCN)C(=O)N[C@@H](C)C(=O)N1CCC[C@H]1C(=O)N1CCC[C@H]1C(=O)NCC(=O)N[C@H](C(=O)O)C(C)C)[C@@H](C)O [CK2N1] |  | 940 µM |  |  | 824 µM | 357 µM |  |  | 325 µM |  |  |  | 
4 | CC(=O)N[C@@H](Cc1ccc(O)cc1)C(=O)N[C@@H](Cc1ccc(O)cc1)C(=O)N[C@@H](CCC(=O)O)C(=O)N[C@H](C(=O)N[C@@H](CO)C(=O)N[C@@H](Cc1c[nH]cn1)C(=O)N[C@@H](Cc1ccc(O)cc1)C(=O)N1CCC[C@H]1C(=O)N[C@@H](C)C(=O)N[C@@H](CO)C(=O)N1CCC[C@H]1C(=O)N[C@@H](CC(=O)O)C(=O)N[C@@H](CO)C(=O)N[C@@H](Cc1c[nH]c2ccccc12)C(=O)N[C@H](C(=O)O)C(C)C)[C@@H](C)O [CTND2] |  |  |  |  |  |  | 694 µM | 301 µM |  | 465 µM | 161 µM | 1020 µM | 364 µM
5 | CC(=O)N[C@@H](Cc1ccc(O)cc1)C(=O)N[C@@H](Cc1ccccc1)C(=O)N[C@H](C(=O)N[C@@H](Cc1ccc(O)cc1)C(=O)N[C@@H](Cc1c[nH]cn1)C(=O)N[C@H](C(=O)N[C@@H](CO)C(=O)N[C@@H](CC(=O)O)C(=O)NCC(=O)N[C@@H](CC(=O)O)C(=O)N[C@@H](C)C(=O)N[C@@H](CC(C)C)C(=O)N[C@@H](CC(C)C)C(=O)N[C@@H](CC(C)C)C(=O)N[C@@H](CC(C)C)C(=O)O)[C@@H](C)O)[C@@H](C)O [CX3C1] |  |  |  |  |  |  |  |  |  | 740 µM | 256 µM |  | 
6 | CC[C@H](C)[C@H](NC(=O)[C@H](CO)NC(=O)[C@@H](NC(=O)[C@@H](NC(=O)[C@@H]1CCCN1C(=O)[C@H](CC(C)C)NC(=O)[C@H](C)NC(=O)[C@@H]1CCCN1C(=O)[C@H](Cc1ccc(O)cc1)NC(C)=O)[C@@H](C)O)C(C)C)C(=O)N[C@@H](CO)C(=O)N[C@@H](CO)C(=O)N[C@@H](CO)C(=O)N[C@@H](C)C(=O)N[C@@H](CCC(=O)O)C(=O)N[C@H](C(=O)O)C(C)C [DOC10] |  | 2020 µM | 2010 µM | 718 µM | 1460 µM | 634 µM |  |  | 698 µM |  |  |  | 
7 | CC(=O)N[C@@H](Cc1ccc(O)cc1)C(=O)N[C@@H](CC(C)C)C(=O)N[C@@H](Cc1c[nH]cn1)C(=O)NCC(=O)N[C@@H](Cc1c[nH]cn1)C(=O)N[C@@H](CCCNC(=N)N)C(=O)N[C@@H](Cc1ccc(O)cc1)C(=O)N[C@@H](CO)C(=O)N[C@@H](CO)C(=O)NCC(=O)N[C@@H](CO)C(=O)N[C@@H](CCCNC(=N)N)C(=O)N[C@@H](CO)C(=O)N[C@@H](CC(C)C)C(=O)N[C@H](C(=O)O)C(C)C [IQEC3] |  | 570 µM | 673 µM | 240 µM | 660 µM | 286 µM |  |  | 197 µM |  |  |  | 
8 | CC[C@H](C)[C@H](NC(=O)[C@H](CCC(=O)O)NC(=O)[C@@H](NC(=O)[C@H](C)NC(=O)[C@@H](NC(=O)[C@@H](NC(=O)[C@H](CC(=O)O)NC(=O)[C@H](CCC(=O)O)NC(=O)[C@H](Cc1ccc(O)cc1)NC(=O)[C@@H]1CCCN1C(=O)[C@@H](NC(=O)[C@H](CC(=O)O)NC(=O)[C@H](C)NC(=O)CNC(=O)[C@H](Cc1ccc(O)cc1)NC(C)=O)[C@@H](C)CC)[C@@H](C)CC)[C@@H](C)CC)[C@@H](C)O)C(=O)O [LZTS1] |  |  |  |  |  |  |  |  |  | 1120 µM | 388 µM | 648 µM | 231 µM
9 | CC(=O)N[C@@H](Cc1ccc(O)cc1)C(=O)N[C@@H](CC(=O)O)C(=O)N[C@@H](CCCCN)C(=O)N[C@@H](CCCNC(=N)N)C(=O)N[C@@H](CC(=O)O)C(=O)N[C@@H](CO)C(=O)N[C@@H](CCC(=O)O)C(=O)N[C@@H](CCC(=O)O)C(=O)N[C@@H](CCC(=O)O)C(=O)N[C@@H](CO)C(=O)N[C@@H](CCC(=O)O)C(=O)N[C@@H](CO)C(=O)N[C@H](C(=O)N[C@@H](C)C(=O)N[C@@H](CC(C)C)C(=O)O)[C@@H](C)O [RHG44] |  |  |  |  |  |  | 1210 µM | 526 µM |  | 944 µM | 327 µM |  | 
10 | CC[C@H](C)[C@H](NC(=O)[C@H](Cc1ccccc1)NC(=O)[C@H](Cc1ccc(O)cc1)NC(=O)[C@@H]1CCCN1C(=O)[C@H](CCC(N)=O)NC(=O)[C@H](Cc1ccc(O)cc1)NC(C)=O)C(=O)N[C@H](C(=O)N[C@@H](CC(N)=O)C(=O)N[C@@H](CO)C(=O)N[C@@H](CCCCN)C(=O)N[C@H](C(=O)N[C@@H](CCC(=O)O)C(=O)N[C@H](C(=O)N[C@H](C(=O)N[C@H](C(=O)O)C(C)C)[C@@H](C)O)C(C)C)[C@@H](C)O)[C@@H](C)O [SHSA9] |  | 994 µM | 1130 µM | 404 µM | 756 µM | 328 µM |  |  | 344 µM |  |  |  | 
